Results on 16 compounds are retold here after ChEMBL document CHEMBL3797054, “Discovery of a series of 8-(2,3-dihydro-1,4-benzoxazin-4-ylmethyl)-2-morpholino-4-oxo-chromene-6-carboxamides as PI3Kβ/δ inhibitors for the treatment of PTEN-deficient tumours” (Bioorg Med Chem Lett, 2016).

Data set [1] in a line: physchem. Particulars: buffer, pH 7.4.
A short description of data set [2]: Intrinsic clearance in human hepatocytes assessed per million cells. Type of data set: ADME, cell-based, Hepatocyte. Particulars: read-out: CLH.
Data set [3] is described as follows: AUC in hairy mouse at 30 umol/kg, po. Particulars: in vivo. Type of data set: ADME, organism-based.
A short description of data set [4]: in vitro. The following applies: human, Caco-2.
Data set [5] is described as follows: Clearance in dog blood at 4 umol/kg, iv and 10 umol/kg, po. The class given is ADME, organism-based, Canis lupus familiaris.
Data set [6] deals with Hepatocyte. In words: Intrinsic clearance in mouse hepatocytes assessed per million cells. The class given is ADME, cell-based.
The nature of data set [7]: Intrinsic clearance in dog hepatocytes assessed per million cells. The class given is ADME, cell-based, Canis lupus familiaris, Hepatocyte.
Data set [8] in a line: Oral bioavailability in dog blood at 10 umol/kg. The class given is ADME, organism-based, Canis lupus familiaris.
The nature of data set [9]: Clearance in hairy mouse blood at 5 umol/kg, iv and 30 umol/kg, po. The class given is ADME, organism-based.
Data set [10] in a line: Volume of distribution at steady state in hairy mouse blood at 5 umol/kg, iv and 30 umol/kg, po. The class given is ADME, organism-based. Particulars: read-out: Vdss.
A short description of data set [11]: Oral bioavailability in hairy mouse blood at 30 umol/kg. The class given is ADME, organism-based.
Data set [12] is described as follows: Volume of distribution at steady state in dog blood at 4 umol/kg, iv and 10 umol/kg, po. The class given is ADME, organism-based, Canis lupus familiaris. Particulars: read-out: Vdss.

Each structure is given as a SMILES string.

The logD is the decadic logarithm of the distribution of all forms, ionised or not, between an organic phase and buffer at a given pH. Higher therefore signals a more lipophilic compound. In data set [1], `CN(C)C(=O)c1cc(CN2CCOc3ccc(F)cc32)c2oc(N3CCOCC3)cc(=O)c2c1` displayed a logD of 1.9. In data set [2], the hepatocyte CLint amounted to 12 µL/min/1e6 cells.
The matching figures for `CN(C)C(=O)c1cc(CN(CCC#N)c2cc(F)cc(F)c2)c2oc(N3CCOCC3)cc(=O)c2c1`: 1.8 and under 3 µL/min/1e6 cells.
The matching figures for `C[C@@H]1CN(c2cc(=O)c3cc(C(=O)N(C)C)cc(CN4CCOc5ccc(F)cc54)c3o2)CCO1`: 2.3 and 15 µL/min/1e6 cells.
What is called AUC is the area under the concentration-time curve, a measure of exposure. A low value points to less exposure. The term Papp A→B denotes the apparent permeability from the apical to the basolateral side of a cell layer. A lower Papp A→B goes with poor permeation. With `C[C@@H]1CN(c2cc(=O)c3cc(C(=O)N(C)C)cc(CN(C)c4cc(F)cc(F)c4)c3o2)CCO1`, the AUC in data set [3] was determined as 15.3 µM·h. For the same compound, the Papp A→B at 2 h, 10 µM in [4] was found to be 55 ×10⁻⁶ cm/s. Further, in data set [1], the logD came out at 2.7. The hepatocyte CLint in data set [2] came out at 5 µL/min/1e6 cells.
As usually defined, the bioavailability is dose-corrected exposure relative to a reference, in per cent. Read a high bioavailability as much systemic uptake. Compound `CN(C)C(=O)c1cc(CN2CCOc3c(F)cccc32)c2oc(N3CCOCC3)cc(=O)c2c1` yielded an AUC in [3] of 3.9 µM·h. Also, the clearance in data set [5] stood at 13 mL/min/kg; in data set [9] it was 49 mL/min/kg. In addition, in data set [4], the apical-to-basolateral permeability (Papp A→B) at 2 h, 10 µM turned out to be 6.5 ×10⁻⁶ cm/s. Besides, the hepatocyte CLint in data set [6] is 21 µL/min/1e6 cells; in [7], 4 µL/min/1e6 cells; in data set [2], under 1 µL/min/1e6 cells. The same compound had a logD in [1] of 1.7. Further, the bioavailability was 63% in [8] and 47% in data set [11]. Further, the results for the Vd in [10] and in [12] were 1.9 L/kg and 1.6 L/kg, respectively.
As for `C[C@@H]1CN(c2cc(=O)c3cc(C(=O)N(C)C)cc(CN4CCOc5c(F)cc(F)cc54)c3o2)CCO1`, the Papp A→B at 2 h, 10 µM in data set [4] turned out to be 25 ×10⁻⁶ cm/s. The logD in data set [1] came to 2.3. The hepatocyte CLint in [2] came to 8 µL/min/1e6 cells.
`C[C@@H]1CN(c2cc(=O)c3cc(C(=O)N4CCOCC4)cc(CN4CCOc5c(F)cc(F)cc54)c3o2)CCO1`: the hepatocyte CLint in data set [2] was under 3 µL/min/1e6 cells.
As for `C[C@@H]1CN(c2cc(=O)c3cc(C(=O)N(C)C)cc(CN4CCOc5c(F)cccc54)c3o2)CCO1`, in data set [3], the AUC is 7.3 µM·h. This compound returned a Papp A→B at 2 h, 10 µM in data set [4] of 28 ×10⁻⁶ cm/s. The logD in data set [1] worked out at 2. Moreover, the hepatocyte CLint in [2] is under 3 µL/min/1e6 cells.
Turning to `C[C@@H]1CN(c2cc(=O)c3cc(C(=O)N4CCOCC4)cc(CN4CCOc5c(F)cccc54)c3o2)CCO1`, in [3], the AUC turned out to be 1 µM·h. The hepatocyte CLint in data set [2] was under 3 µL/min/1e6 cells.
With `CN(C)C(=O)c1cc(CN2CCOc3c(F)cc(F)cc32)c2oc(N3CCOCC3)cc(=O)c2c1`, the exposure (AUC) in [3] was determined as 4.4 µM·h. In addition, the Papp A→B at 2 h, 10 µM in data set [4] was found to be 9 ×10⁻⁶ cm/s. In data set [1], this compound came in with a log distribution coefficient (logD) of 2.1. For the same compound, the hepatocyte CLint in data set [2] came to 7 µL/min/1e6 cells.
In data set [1], `CC(c1cc(C(=O)N(C)C)cc2c(=O)cc(N3CCOCC3)oc12)N1CCOc2c(F)cc(F)cc21` (configuration not stated) gave a logD of 2.
Compound `C[C@@H]1CN(c2cc(=O)c3cc(C(=O)N4CCOCC4)cc(CN4CCOc5ccc(F)cc54)c3o2)CCO1` returned an AUC in [3] of 2.8 µM·h. Besides, the Papp A→B at 2 h, 10 µM in [4] is 11 ×10⁻⁶ cm/s. Besides, the logD in [1] is 2. For the same compound, the hepatocyte CLint in data set [2] stood at 4 µL/min/1e6 cells.
`COCCN(Cc1cc(C(=O)N(C)C)cc2c(=O)cc(N3CCO[C@H](C)C3)oc12)c1cc(F)cc(F)c1` returned a Papp A→B at 2 h, 10 µM in data set [4] of 14 ×10⁻⁶ cm/s. This compound also showed a pH-dependent lipophilicity (logD) in [1] of 2.2. Moreover, the hepatocyte CLint in [2] amounted to 14 µL/min/1e6 cells.
As for `CN(C)C(=O)c1cc(CN(CC#N)c2cc(F)cc(F)c2)c2oc(N3CCOCC3)cc(=O)c2c1`, the logD in data set [1] was 1.5. Also, the hepatocyte CLint in data set [2] was under 3 µL/min/1e6 cells.
As to `CN(C)C(=O)c1cc(CN(C)c2cc(F)cc(F)c2)c2oc(N3CCOCC3)cc(=O)c2c1`, the AUC in [3] worked out at 4.9 µM·h. Besides, the hepatocyte CLint in [2] was under 5 µL/min/1e6 cells.
The compound `COCCN(Cc1cc(C(=O)N(C)C)cc2c(=O)cc(N3CCOCC3)oc12)c1cc(F)cc(F)c1` gave an AUC in data set [3] of 2.4 µM·h. For the same compound, in data set [4], the Papp A→B at 2 h, 10 µM came out at 11 ×10⁻⁶ cm/s. The logD in data set [1] came out at 2.1. Moreover, the hepatocyte CLint in data set [2] is 8 µL/min/1e6 cells.
